Measured values reported in ChEMBL document CHEMBL1212909, “Lactones and quinones from the tubers of Sinningia aggregata” (2010).

How the values were obtained:
Candida dubliniensis [1] = experiment: Antifungal activity against Candida dubliniensis ATCC 777 by broth microdilution method
Candida dubliniensis [2] = experiment: Antifungal activity against Candida dubliniensis ATCC 778157 by broth microdilution method

SMILES	MIC (Candida dubliniensis [1])	MIC (Candida dubliniensis [2])
Cc1ccc2c(c1)C(=O)c1ccccc1C2=O [TECTOQUINONE]	> 100 µg/mL	> 100 µg/mL
Cc1ccc2c(c1)C(=O)c1cc(O)ccc1C2=O	> 100 µg/mL	> 100 µg/mL
COc1ccc2c(c1)C(=O)c1cc(C)ccc1C2=O	> 100 µg/mL	> 100 µg/mL
